Reference: ChEMBL document CHEMBL3745691, “Identification of a small molecule HIV-1 inhibitor that targets the capsid hexamer” (Bioorg Med Chem Lett, 2016)
pIC50, pKd: −log10 of the molar value. Active and inactive are the calls of the source. The rule behind the calls is not given here.

Key:
[1] = tested on: Human immunodeficiency virus 1; experiment: Binding affinity to HIV1 capsid protein p24 assessed as turbidity at 100 uM by spectrophotometer analysis
[2] = tested on: Human immunodeficiency virus 1; experiment: Antiviral activity against HIV1 NL4-3 pseudotyped with JR-FL envelope infected in human U87.CD4.CCR5 cells by single-round infection assay; type: functional, organism-based; conditions: Human immunodeficiency virus 1, NL4-3, U87/CD4/CCR5
[3] = Binding affinity to HIV1 capsid protein p24 by SPR assay; design: species or system Human immunodeficiency virus 1
[4] = Therapeutic index, ratio of CC50 for human U87 cells expressing CD4.CCR5 to IC50 for HIV1 NL4-3 pseudotyped with JR-FL envelope; type: cell-based, U-87MG ATCC; conditions: read-out: Ratio CC50/IC50
[5] = tested on: Human immunodeficiency virus 1; experiment: Inhibition of HIV1 capsid protein p24 interaction with CPSF6 (308-327) at 2.5 uM
[6] = Cytotoxicity against human U87 cells expressing CD4.CCR5; type: cell-based, U-87MG ATCC
[7] = tested on: Human immunodeficiency virus 1; experiment: Inhibition of HIV1 capsid protein p24 interaction with CPSF6 (308-327) at 300 uM

Row | Structure (SMILES) | Activity [1] | pIC50 [2] | pKd [3] | selectivity ratio [4] | inhibition [5] | CC50 [6] [µM] | inhibition [7]
1 | O=C(Cc1c[nH]c2ccccc12)NCC1(c2ccccc2)CC1 | Active | 4.74 | 4.42 | > 29 | Active | 526 | –
2 | Cc1[nH]c2ccccc2c1CC(=O)N[C@@H](Cc1ccccc1)C(=O)N(C)c1ccccc1 | Active | – | 5.60 | – | – | – | Active
